In patent US6455074B1, “Methods for fabricating polymer-based controlled release devices” (Alkermes Controlled Therapeutics, Inc., priority 1997, dated 2002):

Tested on: estrous cycle of the rat
Experiment: Rat Estrous Cyclicity Model
Type: in vivo
Protocol: The Rat Estrous Cyclicity Model is described in detail in Hahn et al., Biological Assays Utilized to Characterize LHRH and its Analogs. In: LHRH and its Analogs, Contraception and Therapeutic Applications (Eds. Vickery B H, Nestor J J, and Hafez ESE), pp. 49-60. MTP Press Ltd, Lancaster, England, 1984, the contents of which are incorporated herein by reference. The model is used to assess the pharnacodynamic effect which an effective serum level of azaline B (at least 2.0 ng/ml), provided by the administration of a sustained release device of the invention, has on the estrous cycle of the rat. When the minimum effective concentration of azaline B is present in serum, the estrus phase of the estrous cycle of the rat is suppressed and the rat remains in the diestrus phase of the estrous cycle.
Microparticles containing an effective amount of azaline B were prepared according to the “Particulate Method,” described above, and the methods of Examples 1 and 3. The presence of azaline B activity was measured as the percent of a test group which remained in the diestrus phase of the estrous cycle. Animals were subcutaneously injected with equal amounts of azaline B either encapsulated in a microparticle or unencapsulated. […] The results are depicted in FIGS. 1 and 2 which show a plot of the percent of animals per treatment group in diestrus for each formulation evaluated versus time.

Q: Which “effective serum level of azaline B (minimum effective concentration suppressing estrus phase)” value does the source give for “Ac-D-Nal′-D-Cpa^2-D-Pal^3-Ser^4-Aph^5(atz)-D-Aph^6(atz)-Leu^7-Ilys^8-Pro^9-D-Ala^10 [azaline B]” here?
A: at least 2.0 ng/ml
